Data published in patent US12595266B2, “Pesticidally active heterocyclic derivatives with sulfur containing substituents” (SYNGENTA CROP PROTECTION AG, priority 2020, dated 2026).

Columns and labels:
Assay type in all cases: in vivo
[1] = tested on: Bemisia tabaci (Cotton White Fly); assay: Activity against Bemisia tabaci (cotton white fly), feeding/contact activity; settings: foliar, 144 h, application rate of 200 ppm, cotton leaf discs sprayed, adult white flies, 6 days after incubation
Description: Example B1: Activity Against Bemisia tabaci (Cotton White Fly) Feeding/Contact Activity
Cotton leaf discs were placed on agar in 24-well microtiter plates and sprayed with aqueous test solutions prepared from 10′000 ppm DMSO stock solutions. After drying the leaf discs were infested with adult white flies. The samples were checked for mortality 6 days after incubation.

[2] = tested on: Spodoptera littoralis (Egyptian Cotton Leaf Worm); assay: Activity against Spodoptera littoralis (Egyptian cotton leaf worm); settings: foliar, 72 h, application rate of 200 ppm, cotton leaf discs sprayed, L1 larvae, 3 days after infestation, read-out: control (at least one of mortality, anti-feedant effect, growth inhibition)
Description: Example B8: Activity Against Spodoptera littoralis (Egyptian Cotton Leaf Worm)
Cotton leaf discs were placed onto agar in 24-well microtiter plates and sprayed with aqueous test solutions prepared from 10′000 ppm DMSO stock solutions. After drying the leaf discs were infested with five L1 larvae. The samples were assessed for mortality, anti-feeding effect, and growth inhibition in comparison to untreated samples 3 days after infestation. Control of Spodoptera littoralis by a test sample is given when at least one of the categories mortality, anti-feedant effect, and growth inhibition is higher than the untreated sample.

[3] = tested on: Diabrotica balteata (Corn Root Worm); assay: Activity against Diabrotica balteata (corn root worm); settings: 96 h, application rate of 200 ppm, maize sprouts sprayed, L2 larvae, 4 days after infestation, read-out: effect in at least one of the two categories (mortality or growth inhibition)
Description: Example B3: Activity Against Diabrotica balteata (Corn Root Worm)
Maize sprouts placed onto an agar layer in 24-well microtiter plates were treated with aqueous test solutions prepared from 10′000 ppm DMSO stock solutions by spraying. After drying, the plates were infested with L2 larvae (6 to 10 per well). The samples were assessed for mortality and growth inhibition in comparison to untreated samples 4 days after infestation.

[4] = tested on: Carpocapsa (Cydia) Pomonella (Codling Moth); assay: Activity against Carpocapsa (Cydia) pomonella (codling moth), larvicide, feeding/contact; settings: 336 h, application rate of 12.5 ppm, paraffin-coated diet cubes sprayed, L1 larvae, 14 days after infestation, 26-27° C.
Description: Example B10: Activity Against Carpocapsa (Cydia) Pomonella (Codling Moth) Larvicide, Feeding/Contact
Diet cubes coated with paraffin were sprayed with diluted test solutions in an application chamber. After drying off the treated cubes (10 replicates) were infested with 1 L1 larvae. Samples were incubated at 26-27° C. and checked 14 days after infestation for mortality and growth inhibition.

[5] = tested on: Plutella xylostella (Diamond Back Moth); assay: Activity against Plutella xylostella (diamond back moth); settings: 192 h, application rate of 200 ppm, artificial diet, Plutella eggs, 8 days after infestation, read-out: effect in at least one of the two categories (mortality or growth inhibition)
Description: Example B7: Activity Against Plutella xylostella (Diamond Back Moth)
24-well microtiter plates with artificial diet were treated with aqueous test solutions prepared from 10′000 ppm DMSO stock solutions by pipetting. After drying, Plutella eggs were pipetted through a plastic stencil onto a gel blotting paper and the plate was closed with it. The samples were assessed for mortality and growth inhibition in comparison to untreated samples 8 days after infestation.

[6] = tested on: Euschistus heros (Neotropical Brown Stink Bug); assay: Activity against Euschistus heros (neotropical brown stink bug); settings: 120 h, application rate of 200 ppm, soybean leaves sprayed, N2 nymphs, 5 days after infestation, read-out: effect in at least one of the two categories (mortality or growth inhibition)
Description: Example B4: Activity Against Euschistus heros (Neotropical Brown Stink Bug)
Soybean leaves on agar in 24-well microtiter plates were sprayed with aqueous test solutions prepared from 10′000 ppm DMSO stock solutions. After drying the leaves were infested with N2 nymphs. The samples were assessed for mortality and growth inhibition in comparison to untreated samples 5 days after infestation.

[7] = tested on: Chilo suppressalis (Striped Rice Stemborer); assay: Activity against Chilo suppressalis (striped rice stemborer); settings: 144 h, application rate of 200 ppm, artificial diet, L2 larvae, 6 days after infestation, read-out: control (at least one of mortality, anti-feedant effect, growth inhibition)
Description: Example B2: Activity Against Chilo suppressalis (Striped Rice Stemborer)
24-well microtiter plates with artificial diet were treated with aqueous test solutions prepared from 10′000 ppm DMSO stock solutions by pipetting. After drying, the plates were infested with L2 larvae (6-8 per well). The samples were assessed for mortality, anti-feeding effect, and growth inhibition in comparison to untreated samples 6 days after infestation. Control of Chilo suppressalis by a test sample is given when at least one of the categories mortality, anti-feedant effect, and growth inhibition is higher than the untreated sample.

[8] = tested on: Myzus persicae (Green Peach Aphid); assay: Activity against Myzus persicae (green peach aphid), feeding/contact activity; settings: foliar, 144 h, application rate of 200 ppm, sunflower leaf discs sprayed, aphid population of mixed ages, 6 days after infestation
Description: Example B6: Activity Against Myzus persicae (Green Peach Aphid) Feeding/Contact Activity
Sunflower leaf discs were placed onto agar in a 24-well microtiter plate and sprayed with aqueous test solutions prepared from 10′000 ppm DMSO stock solutions. After drying, the leaf discs were infested with an aphid population of mixed ages. The samples were assessed for mortality 6 days after infestation.

[9] = tested on: Myzus persicae (Green Peach Aphid); assay: Activity against Myzus persicae (green peach aphid), systemic activity; settings: 144 h, test rate of 24 ppm, roots of infested pea seedlings in test solution (systemic), 6 days
Description: Example B9: Activity Against Myzus persicae (Green Peach Aphid) Systemic Activity
Roots of pea seedlings infested with an aphid population of mixed ages were placed directly into aqueous test solutions prepared from 10′000 DMSO stock solutions. The samples were assessed for mortality 6 days after placing seedlings into test solutions.

[10] = tested on: Frankliniella occidentalis (Western Flower Thrips); assay: Activity against Frankliniella occidentalis (western flower thrips), feeding/contact activity; settings: foliar, 168 h, application rate of 200 ppm, sunflower leaf discs sprayed, population of mixed ages, 7 days after infestation
Description: Example B5: Activity Against Frankliniella occidentalis (Western Flower Thrips) Feeding/Contact Activity
Sunflower leaf discs were placed on agar in 24-well microtiter plates and sprayed with aqueous test solutions prepared from […] stock solutions. After drying the leaf discs were infested with a Frankliniella population of mixed ages. The samples were assessed for mortality 7 days after infestation.

CCS(=O)(=O)c1cc(C2(C#N)CC2)cnc1N1Cc2cc3c(cc2C1=O)OC(F)(F)O3 [Compound P1, 1-[6-(2,2-difluoro-7-oxo-5H-[1,3]dioxolo[4,5-f]isoindol-6-yl)-5-ethylsulfonyl-3-pyridyl]cyclopropanecarbonitrile]
≥ 80%: mortality at 200 ppm [1] | percent control (mortality, anti-feedant effect or growth inhibition) at 200 ppm [2] | percent effect (mortality or growth inhibition) at 200 ppm [3] | mortality at 12.5 ppm [4] | percent effect (mortality or growth inhibition) at 200 ppm [5] | percent effect (mortality or growth inhibition) at 200 ppm [6] | percent control (mortality, anti-feedant effect or growth inhibition) at 200 ppm [7] | mortality at 200 ppm [8]

CCS(=O)(=O)c1cc(C(C)(F)F)cnc1N1Cc2cc3c(cc2C1=O)OC(F)(F)O3 [Compound P23, 6-[5-(1,1-difluoroethyl)-3-ethylsulfonyl-2-pyridyl]-2,2-difluoro-5H-[1,3]dioxolo[4,5-f]isoindol-7-one]
≥ 80%: mortality at 200 ppm [1] | percent control (mortality, anti-feedant effect or growth inhibition) at 200 ppm [2] | mortality at 12.5 ppm [4] | percent effect (mortality or growth inhibition) at 200 ppm [5] | percent control (mortality, anti-feedant effect or growth inhibition) at 200 ppm [7]

CCS(=O)(=O)c1c(N2Cc3cc4c(cc3C2=O)OC(F)(F)O4)nc(-c2ncccn2)n1C [Compound P15, 6-(5-ethylsulfonyl-1-methyl-2-pyrimidin-2-yl-imidazol-4-yl)-2,2-difluoro-5H-[1,3]dioxolo[4,5-f]isoindol-7-one]
≥ 80%: percent control (mortality, anti-feedant effect or growth inhibition) at 200 ppm [2] | percent effect (mortality or growth inhibition) at 200 ppm [3] | percent effect (mortality or growth inhibition) at 200 ppm [5] | percent effect (mortality or growth inhibition) at 200 ppm [6] | mortality at 24 ppm [9] | percent control (mortality, anti-feedant effect or growth inhibition) at 200 ppm [7] | mortality at 200 ppm [8]

CCS(=O)(=O)c1c(N2Cc3cc4c(cc3C2=O)OC(F)(F)O4)nc(-c2ccc(C3(C#N)CC3)cc2)n1C [Compound P2, 1-[4-[4-(2,2-difluoro-7-oxo-5H-[1,3]dioxolo[4,5-f]isoindol-6-yl)-5-ethylsulfonyl-1-methyl-imidazol-2-yl]phenyl]cyclopropanecarbonitrile]
≥ 80%: percent control (mortality, anti-feedant effect or growth inhibition) at 200 ppm [2] | percent effect (mortality or growth inhibition) at 200 ppm [3] | mortality at 12.5 ppm [4] | percent effect (mortality or growth inhibition) at 200 ppm [5] | percent effect (mortality or growth inhibition) at 200 ppm [6] | percent control (mortality, anti-feedant effect or growth inhibition) at 200 ppm [7] | mortality at 200 ppm [8] | mortality at 200 ppm [10]

CCS(=O)(=O)c1c(N2Cc3cc4c(cc3C2=O)OC(F)(F)O4)nc(-c2cnn(CC(F)(F)F)c2)n1C [Compound P14, 6-[5-ethylsulfonyl-1-methyl-2-[1-(2,2,2-trifluoroethyl)pyrazol-4-yl]imidazol-4-yl]-2,2-difluoro-5H-[1,3]dioxolo[4,5-f]isoindol-7-one]
≥ 80%: percent control (mortality, anti-feedant effect or growth inhibition) at 200 ppm [2] | percent effect (mortality or growth inhibition) at 200 ppm [3] | percent effect (mortality or growth inhibition) at 200 ppm [5] | percent effect (mortality or growth inhibition) at 200 ppm [6] | mortality at 24 ppm [9] | percent control (mortality, anti-feedant effect or growth inhibition) at 200 ppm [7] | mortality at 200 ppm [8]

CCS(=O)(=O)c1cc(C(C)(C)C#N)cnc1N1Cc2cc3c(cc2C1=O)OC(F)(F)O3 [Compound P22, 2-[6-(2,2-difluoro-7-oxo-5H-[1,3]dioxolo[4,5-f]isoindol-6-yl)-5-ethylsulfonyl-3-pyridyl]-2-methyl-propanenitrile]
≥ 80%: mortality at 200 ppm [1] | percent control (mortality, anti-feedant effect or growth inhibition) at 200 ppm [2] | percent effect (mortality or growth inhibition) at 200 ppm [3] | mortality at 12.5 ppm [4] | percent effect (mortality or growth inhibition) at 200 ppm [5] | percent effect (mortality or growth inhibition) at 200 ppm [6] | percent control (mortality, anti-feedant effect or growth inhibition) at 200 ppm [7]

CCS(=O)(=O)c1c(N2Cc3cc4c(cc3C2=O)OC(F)(F)O4)nc(-c2cnn(CC3CC3)c2)n1C [Compound P9, 6-[2-[1-(cyclopropylmethyl)pyrazol-4-yl]-5-ethylsulfonyl-1-methyl-imidazol-4-yl]-2,2-difluoro-5H-[1,3]dioxolo[4,5-f]isoindol-7-one]
≥ 80%: percent control (mortality, anti-feedant effect or growth inhibition) at 200 ppm [2] | percent effect (mortality or growth inhibition) at 200 ppm [3] | percent effect (mortality or growth inhibition) at 200 ppm [5] | percent effect (mortality or growth inhibition) at 200 ppm [6] | mortality at 24 ppm [9] | percent control (mortality, anti-feedant effect or growth inhibition) at 200 ppm [7] | mortality at 200 ppm [8]

CCS(=O)(=O)c1c(N2Cc3cc4c(cc3C2=O)OC(F)(F)O4)nc(-c2cnn(C(F)F)c2)n1C [Compound P20, 6-[2-[1-(difluoromethyl)pyrazol-4-yl]-5-ethylsulfonyl-1-methyl-imidazol-4-yl]-2,2-difluoro-5H-[1,3]dioxolo[4,5-f]isoindol-7-one]
≥ 80%: mortality at 200 ppm [1] | percent control (mortality, anti-feedant effect or growth inhibition) at 200 ppm [2] | percent effect (mortality or growth inhibition) at 200 ppm [3] | percent effect (mortality or growth inhibition) at 200 ppm [5] | percent effect (mortality or growth inhibition) at 200 ppm [6] | percent control (mortality, anti-feedant effect or growth inhibition) at 200 ppm [7]

CCS(=O)(=O)c1cc(OC(C)(C)C#N)cnc1N1Cc2cc3c(cc2C1=O)OC(F)(F)O3 [Compound P25, 2-[[6-(2,2-difluoro-7-oxo-5H-[1,3]dioxolo[4,5-f]isoindol-6-yl)-5-ethylsulfonyl-3-pyridyl]oxy]-2-methyl-propanenitrile]
≥ 80%: mortality at 200 ppm [1] | percent control (mortality, anti-feedant effect or growth inhibition) at 200 ppm [2] | percent effect (mortality or growth inhibition) at 200 ppm [3] | mortality at 12.5 ppm [4] | percent effect (mortality or growth inhibition) at 200 ppm [5] | percent effect (mortality or growth inhibition) at 200 ppm [6] | percent control (mortality, anti-feedant effect or growth inhibition) at 200 ppm [7] | mortality at 200 ppm [8]

CCS(=O)(=O)c1ccc(-c2ncccn2)nc1N1Cc2cc3c(cc2C1=O)OC(F)(F)O3 [Compound P16, 6-(3-ethylsulfonyl-6-pyrimidin-2-yl-2-pyridyl)-2,2-difluoro-5H-[1,3]dioxolo[4,5-f]isoindol-7-one]
≥ 80%: percent control (mortality, anti-feedant effect or growth inhibition) at 200 ppm [2] | percent effect (mortality or growth inhibition) at 200 ppm [3] | percent effect (mortality or growth inhibition) at 200 ppm [5] | percent effect (mortality or growth inhibition) at 200 ppm [6] | mortality at 24 ppm [9] | percent control (mortality, anti-feedant effect or growth inhibition) at 200 ppm [7] | mortality at 200 ppm [8]
